# From paper PMC13286573, “Exploration of precision coregulator TR-FRET identifies diverse signatures for LXR ligands relevant to discovery of nonlipogenic ABCA1 inducers” (eLife, 2026)
# “Also recorded” adds a separate entry of the source.
# Key:
# [1] = test system: sterol response element (SRE); experiment: SRE-luc reporter assay in HepG2 cells; type: cell-based, human
# How it was run: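 HepG2 cells stably carrying an SRE (LDLR) promoter–NlucP reporter, grown in medium with charcoal-stripped FBS. Treated with compounds for 24 hr at 37 °C, then lysed and nanoluciferase luminescence read.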
# HepG2 cells = experiment: Cell viability in HepG2 cells under SRE-luc conditions; type: cell-based, human; conditions: conditions of SRE-luc measurements
# From the text: Figure 5. Lipogenic response of HepG2 cells to treatment with liver X receptor (LXR) ligands. […] See Figure 3—figure supplement 1 for biological replicates. […] See Figure 5—figure supplement 1 for full concentration-response curves. Figure 5—figure supplement 1. Response of HepG2 cells to treatment with liver X receptor (LXR) ligands. (A–B) Lipogenic response of HepG2 cells to treatment with liver X receptor (LXR) ligands showing full concentration-response curves for biphenyl compounds shown in Figure 5E–F. (C) Cell viability in HepG2 cells under identical conditions to those used to obtain sterol response element (SRE)-luc data. [drawing 5]
# LXR = experiment: Categorization of ligands by CRT/pCRT signature; type: biochemical; conditions: response at 1 µM ligand compared with theoretical signatures
# From the text: With the knowledge that, in pCRT, corepressors bind to the apo-receptor; whereas coactivator binding requires a ligand-induced conformational change, we can categorize all ligands using their CRT profiles. Ligands induce three LXR conformational ensembles with CoR (destabilizing D, stabilizing S, neutral N) and only two conformations with CoA (stabilizing S, neutral N) (Figure 9 (Table 1)). In categorizing ligands based upon these CRT characteristics, labels are needed.
# The category for each ligand is not always identical for LXRα vs. LXRβ. Similarly, the phenotype associated with each classification is isoform dependent. Recruitment of CoA to LXRβ by FA, WA, and PA will activate transcription; whereas, lack of recruitment by SA, HA, and RA will antagonize transcription (Figure 9 (Table 1)). Stabilization of CoA and/or destabilization of CoR bound to LXRα is a derepression mechanism leading to activation/transcription for FA, WA, and RA; whereas partial activation is expected for PA.
# To determine which LXR ligands fit with these theoretical CRT signatures, concentration-response curves were interpolated to measure normalized response at 1 µM ligand concentration and plotted as a heat map (Figure 9A).
# obese mice on HFD = test system: obese mice on HFD; parameters: method as in Griffett et al., 2015; conditions: ref Griffett et al., 2015; cited from earlier work
# LXRα = target: T1, LXRα (Homo sapiens, UniProt Q13133); conditions: in the absence of agonist
# T1 sequence (Q13133 209-447 limits assumed): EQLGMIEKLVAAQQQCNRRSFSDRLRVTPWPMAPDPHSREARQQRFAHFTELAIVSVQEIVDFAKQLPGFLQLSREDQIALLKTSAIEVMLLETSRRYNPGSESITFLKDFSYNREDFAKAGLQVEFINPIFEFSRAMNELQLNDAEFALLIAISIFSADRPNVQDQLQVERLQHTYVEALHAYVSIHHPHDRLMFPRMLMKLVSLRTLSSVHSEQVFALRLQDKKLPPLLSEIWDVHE
# LXRβ = target: T2, LXRβ (Homo sapiens, UniProt P55055); conditions: in the absence of agonist
# T2 sequence (P55055 222-460 limits assumed): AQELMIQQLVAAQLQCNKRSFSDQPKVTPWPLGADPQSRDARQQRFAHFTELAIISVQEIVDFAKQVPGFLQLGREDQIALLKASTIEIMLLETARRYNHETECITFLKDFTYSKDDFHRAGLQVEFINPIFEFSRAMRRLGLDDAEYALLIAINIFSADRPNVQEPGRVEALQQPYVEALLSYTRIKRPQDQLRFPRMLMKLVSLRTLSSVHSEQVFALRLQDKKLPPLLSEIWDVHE
SMILES,SRE activation response/phenotype in HepG2 [1],HepG2 cell viability/cytotoxicity (HepG2 cells),CRT/pCRT signature category (LXR),Plasma TG (obese mice on HFD),Coactivator recruitment to LXRα (LXRα),Coactivator recruitment to LXRβ (LXRβ)
Cc1cc(C)c(S(=O)(=O)N(Cc2ccc(-c3cccc(S(C)(=O)=O)c3)cc2)Cc2ccc(C(F)(F)F)o2)c(C)c1 [GSK2033],neutral or antagonist response,no loss of cell viability,HA (hard antagonist (HA)),–,–,–
CCOC(=O)c1ccc(CN(Cc2ccc(-c3cccc(S(C)(=O)=O)c3)cc2)S(=O)(=O)c2c(C)cc(C)cc2C)o1 [SR9238],lowered SRE activation below baseline; also recorded: neutral or antagonist response; also recorded: inverse agonist at <3 µM concentration,no loss of cell viability,RA (reverse agonist (RA)),plasma TG was suppressed,unable to recruit coactivators to LXRα,very weakly supported coactivator recruitment to LXRβ
